Measured values from patent publication US10202339B2, “Therapeutic compounds and compositions” (AGIOS PHARMACEUTICALS, INC., priority 2012, dated 2019).
pIC50: −log10 of the molar value.

Molecular target: IDH1 R132H (Homo sapiens (Human), UniProt O75874, R132H)
Test: In vitro assay for IDH1m (R132H) inhibitors, NADPH depletion with resazurin/resorufin detection
Assay type: biochemical
Conditions: IDH1 R132H enzyme, 50 minutes at room temperature; read-out: IDH R132H IC50
Description: Assays were conducted in a volume of 76 μl assay buffer (150 mM NaCl, 10 mM MgCl2, 20 mM Tris pH 7.5, 0.03% bovine serum albumin) as follows in a standard 384-well plate: To 25 ul of substrate mix (8 uM NADPH, 2 mM aKG), 1 μl of test compound was added in DMSO. The plate was centrifuged briefly, and then 25 μl of enzyme mix was added (0.2 μg/ml IDH1 R132H) followed by a brief centrifugation and shake at 100 RPM. The reaction was incubated for 50 minutes at room temperature, then 25 μl of detection mix (30 μM resazurin, […]) was added and the mixture further incubated for 5 minutes at room temperature. The conversion of resazurin to resorufin was detected by fluorescent spectroscopy at Ex544 Em590 c/o 590.
Representative compounds of formula (I) set forth in Tables 1 and 2 were tested in this assay and the results are set forth below in Table 4.

IDH1 R132H, sequence (O75874 whole entry R132H): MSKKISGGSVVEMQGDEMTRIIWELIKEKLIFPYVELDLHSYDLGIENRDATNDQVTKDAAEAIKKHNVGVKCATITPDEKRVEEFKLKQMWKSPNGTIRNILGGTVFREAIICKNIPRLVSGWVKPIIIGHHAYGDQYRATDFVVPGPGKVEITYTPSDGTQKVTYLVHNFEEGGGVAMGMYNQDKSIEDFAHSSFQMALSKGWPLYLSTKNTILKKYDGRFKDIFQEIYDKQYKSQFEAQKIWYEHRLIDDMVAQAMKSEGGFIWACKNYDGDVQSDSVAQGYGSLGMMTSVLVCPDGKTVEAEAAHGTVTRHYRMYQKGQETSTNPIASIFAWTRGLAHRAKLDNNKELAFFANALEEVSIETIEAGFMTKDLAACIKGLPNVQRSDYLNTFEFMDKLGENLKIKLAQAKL

SMILES | pIC50
Cc1ccc(NC(=O)Nc2ccc(Br)cc2Cl)cc1S(=O)(=O)Nc1ccc(Cl)cc1 [Compound 227] | 5.00 to 6.00
Cc1cc(Br)ccc1NC(=O)Nc1ccc(C)c(S(=O)(=O)Nc2ccc(Cl)cc2)c1 [Compound 238] | 5.00 to 6.00
Cc1ccc(NC(=O)Nc2c(C)cc(Br)cc2C)cc1S(=O)(=O)Nc1ccc(Cl)cc1 [Compound 239] | 5.00 to 6.00
Cc1ccc(NC(=O)Nc2ccc(Cl)c([N+](=O)[O-])c2)cc1S(=O)(=O)Nc1ccc(Cl)cc1 [Compound 242] | 5.00 to 6.00
Cc1ccc(NC(=O)Nc2cc(Cl)ccc2[N+](=O)[O-])cc1S(=O)(=O)Nc1ccc(Cl)cc1 [Compound 243] | 5.00 to 6.00
Cc1ccc(NC(=O)Nc2ccc([N+](=O)[O-])cc2Cl)cc1S(=O)(=O)Nc1ccc(Cl)cc1 [Compound 244] | 5.00 to 6.00
Cc1ccc(NC(=O)Nc2ccc(F)cc2[N+](=O)[O-])cc1S(=O)(=O)Nc1ccc(Cl)cc1 [Compound 245] | 5.00 to 6.00
Cc1ccc(NC(=O)Nc2cc(Cl)c(Cl)cc2Cl)cc1S(=O)(=O)Nc1ccc(Cl)cc1 [Compound 246] | 5.00 to 6.00
Cc1ccc(NC(=O)Nc2c(Cl)cc(F)cc2Br)cc1S(=O)(=O)Nc1ccc(Cl)cc1 [Compound 247] | 5.00 to 6.00
Cc1ccc(NC(=O)Nc2ccc(F)c(F)c2F)cc1S(=O)(=O)Nc1ccc(Cl)cc1 [Compound 248] | 5.00 to 6.00
CCc1ccccc1NC(=O)Nc1ccc(C)c(S(=O)(=O)Nc2ccc(Cl)cc2)c1 [Compound 250] | 5.00 to 6.00
CCCCc1ccc(NC(=O)Nc2ccc(C)c(S(=O)(=O)Nc3ccc(Cl)cc3)c2)cc1 [Compound 253] | 5.00 to 6.00
Cc1ccc(NC(=O)Nc2ccc(C(C)C)cc2)cc1S(=O)(=O)Nc1ccc(Cl)cc1 [Compound 254] | 5.00 to 6.00
Cc1ccc(NC(=O)Nc2ccccc2C(C)(C)C)cc1S(=O)(=O)Nc1ccc(Cl)cc1 [Compound 255] | 5.00 to 6.00
Cc1cc(C)cc(NC(=O)Nc2ccc(C)c(S(=O)(=O)Nc3ccc(Cl)cc3)c2)c1 [Compound 260] | 5.00 to 6.00
CCc1cccc(CC)c1NC(=O)Nc1ccc(C)c(S(=O)(=O)Nc2ccc(Cl)cc2)c1 [Compound 261] | 5.00 to 6.00
Cc1cc([N+](=O)[O-])ccc1NC(=O)Nc1ccc(C)c(S(=O)(=O)Nc2ccc(Cl)cc2)c1 [Compound 262] | 5.00 to 6.00
Cc1ccc(NC(=O)Nc2cccc([N+](=O)[O-])c2C)cc1S(=O)(=O)Nc1ccc(Cl)cc1 [Compound 264] | 5.00 to 6.00
COc1ccccc1NC(=O)Nc1ccc(C)c(S(=O)(=O)Nc2ccc(Cl)cc2)c1 [Compound 265] | 5.00 to 6.00
COc1ccc(OC)c(NC(=O)Nc2ccc(C)c(S(=O)(=O)Nc3ccc(Cl)cc3)c2)c1 [Compound 268] | 5.00 to 6.00
COc1cc(NC(=O)Nc2ccc(C)c(S(=O)(=O)Nc3ccc(Cl)cc3)c2)cc(OC)c1 [Compound 269] | 5.00 to 6.00
COc1ccc(Cl)cc1NC(=O)Nc1ccc(C)c(S(=O)(=O)Nc2ccc(Cl)cc2)c1 [Compound 270] | 5.00 to 6.00
COc1cc(OC)c(NC(=O)Nc2ccc(C)c(S(=O)(=O)Nc3ccc(Cl)cc3)c2)cc1Cl [Compound 271] | 5.00 to 6.00
COc1cc([N+](=O)[O-])ccc1NC(=O)Nc1ccc(C)c(S(=O)(=O)Nc2ccc(Cl)cc2)c1 [Compound 272] | 5.00 to 6.00

Second part, the compound after the results:

pIC50 | SMILES
5.00 to 6.00 | Cc1ccc(NC(=O)Nc2cccc(C(F)(F)F)c2)cc1S(=O)(=O)Nc1ccc(Cl)cc1 [Compound 221, N-(4-chlorophenyl)-2-methyl-5-(3-(3(trifluoromethyl)phenyl)ureido)benzenesulfonamide]
5.00 to 6.00 | Cc1ccc(NC(=O)Nc2ccc(C(F)(F)F)cc2)cc1S(=O)(=O)Nc1ccc(Cl)cc1 [Compound 222, N-(4-chlorophenyl)-2-methyl-5-(3-(4-(trifluoromethyl)phenyl)ureido)benzenesulfonamide]
5.00 to 6.00 | Cc1ccc(NC(=O)Nc2ccccc2OC(F)(F)F)cc1S(=O)(=O)Nc1ccc(Cl)cc1 [Compound 224]
5.00 to 6.00 | Cc1ccc(NC(=O)Nc2ccc(OC(F)(F)F)cc2)cc1S(=O)(=O)Nc1ccc(Cl)cc1 [Compound 225, N-(4-chlorophenyl)-2-methyl-5-(3-(4-(trifluoromethoxy)phenyl)ureido)benzenesulfonamide]
5.00 to 6.00 | Cc1ccc(NC(=O)Nc2ccc(F)c(Cl)c2)cc1S(=O)(=O)Nc1ccc(Cl)cc1 [Compound 228]
5.00 to 6.00 | Cc1ccc(NC(=O)Nc2ccc(F)cc2F)cc1S(=O)(=O)Nc1ccc(Cl)cc1 [Compound 229]
5.00 to 6.00 | Cc1ccc(NC(=O)Nc2ccc(F)c(F)c2)cc1S(=O)(=O)Nc1ccc(Cl)cc1 [Compound 230]
5.00 to 6.00 | Cc1ccc(NC(=O)Nc2ccc(C(F)(F)F)cc2Cl)cc1S(=O)(=O)Nc1ccc(Cl)cc1 [Compound 231]
5.00 to 6.00 | Cc1ccc(NC(=O)Nc2ccc(Br)cc2OC(F)(F)F)cc1S(=O)(=O)Nc1ccc(Cl)cc1 [Compound 232]
5.00 to 6.00 | Cc1ccc(NC(=O)Nc2cc(C(F)(F)F)ccc2F)cc1S(=O)(=O)Nc1ccc(Cl)cc1 [Compound 233]
5.00 to 6.00 | Cc1ccc(NC(=O)Nc2c(C)cccc2Cl)cc1S(=O)(=O)Nc1ccc(Cl)cc1 [Compound 234]
5.00 to 6.00 | Cc1ccc(NC(=O)Nc2ccc(C)c(S(=O)(=O)Nc3ccc(Cl)cc3)c2)cc1Cl [Compound 235]
5.00 to 6.00 | Cc1cc(Cl)ccc1NC(=O)Nc1ccc(C)c(S(=O)(=O)Nc2ccc(Cl)cc2)c1 [Compound 236]
5.00 to 6.00 | Cc1cc(NC(=O)Nc2ccc(C)c(S(=O)(=O)Nc3ccc(Cl)cc3)c2)ccc1Br [Compound 237]
5.00 to 6.00 | Cc1ccc(F)c(NC(=O)Nc2ccc(C)c(S(=O)(=O)Nc3ccc(Cl)cc3)c2)c1 [Compound 240]
5.00 to 6.00 | Cc1ccc(F)cc1NC(=O)Nc1ccc(C)c(S(=O)(=O)Nc2ccc(Cl)cc2)c1 [Compound 241]
5.00 to 6.00 | Cc1cccc(NC(=O)Nc2ccc(C)c(S(=O)(=O)Nc3ccc(Cl)cc3)c2)c1 [Compound 249]
5.00 to 6.00 | CCc1cccc(NC(=O)Nc2ccc(C)c(S(=O)(=O)Nc3ccc(Cl)cc3)c2)c1 [Compound 251]
5.00 to 6.00 | CCc1ccc(NC(=O)Nc2ccc(C)c(S(=O)(=O)Nc3ccc(Cl)cc3)c2)cc1 [Compound 252]
5.00 to 6.00 | Cc1ccc(NC(=O)Nc2ccc(C(C)(C)C)cc2)cc1S(=O)(=O)Nc1ccc(Cl)cc1 [Compound 256]
5.00 to 6.00 | Cc1ccc(NC(=O)Nc2c(C)cccc2C)cc1S(=O)(=O)Nc1ccc(Cl)cc1 [Compound 257]
5.00 to 6.00 | Cc1ccc(NC(=O)Nc2cccc(C)c2C)cc1S(=O)(=O)Nc1ccc(Cl)cc1 [Compound 258]
5.00 to 6.00 | Cc1ccc(NC(=O)Nc2ccc(C)c(S(=O)(=O)Nc3ccc(Cl)cc3)c2)cc1C [Compound 259]
5.00 to 6.00 | Cc1ccc(NC(=O)Nc2ccc(C)c(S(=O)(=O)Nc3ccc(Cl)cc3)c2)cc1[N+](=O)[O-] [Compound 263]
5.00 to 6.00 | COc1cccc(NC(=O)Nc2ccc(C)c(S(=O)(=O)Nc3ccc(Cl)cc3)c2)c1 [Compound 266]
5.00 to 6.00 | COc1ccc(NC(=O)Nc2ccc(C)c(S(=O)(=O)Nc3ccc(Cl)cc3)c2)cc1 [Compound 267]
5.00 to 6.00 | CSc1cccc(NC(=O)Nc2ccc(C)c(S(=O)(=O)Nc3ccc(Cl)cc3)c2)c1 [Compound 273]
5.00 to 6.00 | CSc1ccc(NC(=O)Nc2ccc(C)c(S(=O)(=O)Nc3ccc(Cl)cc3)c2)cc1 [Compound 274]
